# Tested on: peptide-specific IgG in sera of cancer patients and healthy donors
# Assay: Measurement of anti-peptide IgG in plasma by LUMINEX multiplexed flow cytometric assay
# Type: binding, human
# Method: The levels of anti-peptide immunoglobulin G (IgG) were measured by the LUMINEX™ system (multiplexed flow cytometric assay) as previously reported (Komatsu N, Shichijo S, Nakagawa M, Itoh K. New multiplexed flow cytometric assay to measure anti-peptide antibody: a novel tool for monitoring immune responses to peptides used for immunization. Scand J Clin Lab Invest 2004; 64:1-11). In brief, plasma was incubated with 25 μl of peptide-coupled color-coded beads for 2 hr at room temperature on a plate shaker. After incubation, the mixture was washed with a vacuum manifold apparatus and incubated with 100 μl of biotinylated goat anti-human IgG (γ chain-specific)(BA-3080, Vector Laboratories, Burlingame, Calif., USA) for 1 h at room temperature. The plate was then washed, followed by the addition of 100 μl of streptavidin-PE (S-866, Molecular Probes, Eugene, Oreg., USA) into wells, and was incubated for 30 min at room temperature on a plate shaker. The bound beads were washed three times followed by the addition of 100 μl of Tween-PBS into each well. Fifty μl of sample was detected using the LUMINEX™ system (multiplexed flow cytometric assay). To confirm the specificity of IgG to a SCCA peptide, sample plasma was cultured in plates coated with a corresponding SCCA peptide, or with an irrelevant SCCA peptide. After the operation was repeated three times, the levels of the corresponding SCCA peptide-specific IgG in the resulting supernatant were determined by the LUMINEX™ system (multiplexed flow cytometric assay).
# These 9 SCCA-derived peptides were screened based on their ability to be recognized by IgG in cancer patients. Peptide-specific IgG was measured by a multiplexed flow cytometric assay (LUMINEX™ (multiplexed flow cytometric assay)). The plasma samples were derived from 35 uterine cervical SCC patients, 10 breast adenocarcinoma patients, 10 pancreatic adenocarcinoma patients, 10 gastric adenocarcinoma, and 6 colon adenocarcinoma patients. The level of fluorescence intensity was judged to be significant when exceeded 100 at an 1/100 dilution.
sequence,measurement,setting,value
"AYELKIANKL (SCCA 98-107 peptide) [SCCA-derived peptide, position 98-107]",Total: healthy donors with significant peptide-reactive IgG / donors tested,"10 healthy donors, significant when fluorescence intensity exceeded 100 at 1/100 dilution",1/10
same,Total: cancer patients with significant peptide-reactive IgG / patients tested,"71 cancer patients, significant when fluorescence intensity exceeded 100 at 1/100 dilution",12/71
same,Fluorescence intesity,"serum of Breast Ca. patient #36, 1:100 dilution",44
same,Fluorescence intesity,"serum of Breast Ca. patient #37, 1:100 dilution",18
same,Fluorescence intesity,"serum of Breast Ca. patient #38, 1:100 dilution",12
same,Fluorescence intesity,"serum of Breast Ca. patient #39, 1:100 dilution",20
same,Fluorescence intesity,"serum of Breast Ca. patient #40, 1:100 dilution",10
same,Fluorescence intesity,"serum of Breast Ca. patient #41, 1:100 dilution",214
same,Fluorescence intesity,"serum of Breast Ca. patient #42, 1:100 dilution",12
same,Fluorescence intesity,"serum of Breast Ca. patient #43, 1:100 dilution",12
same,Fluorescence intesity,"serum of Breast Ca. patient #44, 1:100 dilution",0
same,Fluorescence intesity,"serum of Breast Ca. patient #45, 1:100 dilution",18
same,Fluorescence intesity,"serum of Colon Ca. patient #66, 1:100 dilution",0
same,Fluorescence intesity,"serum of Colon Ca. patient #67, 1:100 dilution",0
same,Fluorescence intesity,"serum of Colon Ca. patient #68, 1:100 dilution",0
same,Fluorescence intesity,"serum of Colon Ca. patient #69, 1:100 dilution",0
same,Fluorescence intesity,"serum of Colon Ca. patient #70, 1:100 dilution",0
same,Fluorescence intesity,"serum of Colon Ca. patient #71, 1:100 dilution",26
same,Fluorescence intesity,"serum of Gastric Ca. patient #56, 1:100 dilution",2
same,Fluorescence intesity,"serum of Gastric Ca. patient #57, 1:100 dilution",0
same,Fluorescence intesity,"serum of Gastric Ca. patient #58, 1:100 dilution",0
same,Fluorescence intesity,"serum of Gastric Ca. patient #59, 1:100 dilution",15
same,Fluorescence intesity,"serum of Gastric Ca. patient #60, 1:100 dilution",1
same,Fluorescence intesity,"serum of Gastric Ca. patient #61, 1:100 dilution",8
same,Fluorescence intesity,"serum of Gastric Ca. patient #62, 1:100 dilution",0
same,Fluorescence intesity,"serum of Gastric Ca. patient #63, 1:100 dilution",0
same,Fluorescence intesity,"serum of Gastric Ca. patient #64, 1:100 dilution",0
same,Fluorescence intesity,"serum of Gastric Ca. patient #65, 1:100 dilution",0
same,Fluorescence intesity,"serum of Healthy Donor #1, 1:100 dilution",0
same,Fluorescence intesity,"serum of Healthy Donor #2, 1:100 dilution",35
same,Fluorescence intesity,"serum of Healthy Donor #3, 1:100 dilution",0
same,Fluorescence intesity,"serum of Healthy Donor #4, 1:100 dilution",0
same,Fluorescence intesity,"serum of Healthy Donor #5, 1:100 dilution",0
same,Fluorescence intesity,"serum of Healthy Donor #6, 1:100 dilution",0
same,Fluorescence intesity,"serum of Healthy Donor #7, 1:100 dilution",0
same,Fluorescence intesity,"serum of Healthy Donor #8, 1:100 dilution",361
same,Fluorescence intesity,"serum of Healthy Donor #9, 1:100 dilution",39
same,Fluorescence intesity,"serum of Healthy Donor #10, 1:100 dilution",0
same,Fluorescence intesity,"serum of Pancreas Ca. patient #46, 1:100 dilution",0
same,Fluorescence intesity,"serum of Pancreas Ca. patient #47, 1:100 dilution",6
same,Fluorescence intesity,"serum of Pancreas Ca. patient #48, 1:100 dilution",369
same,Fluorescence intesity,"serum of Pancreas Ca. patient #49, 1:100 dilution",0
same,Fluorescence intesity,"serum of Pancreas Ca. patient #50, 1:100 dilution",0
same,Fluorescence intesity,"serum of Pancreas Ca. patient #51, 1:100 dilution",0
same,Fluorescence intesity,"serum of Pancreas Ca. patient #52, 1:100 dilution",100
same,Fluorescence intesity,"serum of Pancreas Ca. patient #53, 1:100 dilution",0
same,Fluorescence intesity,"serum of Pancreas Ca. patient #54, 1:100 dilution",0
same,Fluorescence intesity,"serum of Pancreas Ca. patient #55, 1:100 dilution",0
same,Fluorescence intesity,"serum of Uterine cervical Ca. patient #1, 1:100 dilution",11
same,Fluorescence intesity,"serum of Uterine cervical Ca. patient #2, 1:100 dilution",0
same,Fluorescence intesity,"serum of Uterine cervical Ca. patient #3, 1:100 dilution",0
same,Fluorescence intesity,"serum of Uterine cervical Ca. patient #4, 1:100 dilution",0
same,Fluorescence intesity,"serum of Uterine cervical Ca. patient #5, 1:100 dilution",0
same,Fluorescence intesity,"serum of Uterine cervical Ca. patient #6, 1:100 dilution",1226
same,Fluorescence intesity,"serum of Uterine cervical Ca. patient #7, 1:100 dilution",26
same,Fluorescence intesity,"serum of Uterine cervical Ca. patient #8, 1:100 dilution",26
same,Fluorescence intesity,"serum of Uterine cervical Ca. patient #9, 1:100 dilution",58
same,Fluorescence intesity,"serum of Uterine cervical Ca. patient #10, 1:100 dilution",14
same,Fluorescence intesity,"serum of Uterine cervical Ca. patient #11, 1:100 dilution",33
same,Fluorescence intesity,"serum of Uterine cervical Ca. patient #12, 1:100 dilution",33
same,Fluorescence intesity,"serum of Uterine cervical Ca. patient #13, 1:100 dilution",397
same,Fluorescence intesity,"serum of Uterine cervical Ca. patient #14, 1:100 dilution",26
same,Fluorescence intesity,"serum of Uterine cervical Ca. patient #15, 1:100 dilution",136
same,Fluorescence intesity,"serum of Uterine cervical Ca. patient #16, 1:100 dilution",145
same,Fluorescence intesity,"serum of Uterine cervical Ca. patient #17, 1:100 dilution",72
same,Fluorescence intesity,"serum of Uterine cervical Ca. patient #18, 1:100 dilution",71
same,Fluorescence intesity,"serum of Uterine cervical Ca. patient #19, 1:100 dilution",92
same,Fluorescence intesity,"serum of Uterine cervical Ca. patient #20, 1:100 dilution",85
same,Fluorescence intesity,"serum of Uterine cervical Ca. patient #21, 1:100 dilution",28
same,Fluorescence intesity,"serum of Uterine cervical Ca. patient #22, 1:100 dilution",28
same,Fluorescence intesity,"serum of Uterine cervical Ca. patient #23, 1:100 dilution",82
same,Fluorescence intesity,"serum of Uterine cervical Ca. patient #24, 1:100 dilution",2650
same,Fluorescence intesity,"serum of Uterine cervical Ca. patient #25, 1:100 dilution",17
same,Fluorescence intesity,"serum of Uterine cervical Ca. patient #26, 1:100 dilution",166
same,Fluorescence intesity,"serum of Uterine cervical Ca. patient #27, 1:100 dilution",33
same,Fluorescence intesity,"serum of Uterine cervical Ca. patient #28, 1:100 dilution",139
same,Fluorescence intesity,"serum of Uterine cervical Ca. patient #29, 1:100 dilution",21
same,Fluorescence intesity,"serum of Uterine cervical Ca. patient #30, 1:100 dilution",50
same,Fluorescence intesity,"serum of Uterine cervical Ca. patient #31, 1:100 dilution",107
same,Fluorescence intesity,"serum of Uterine cervical Ca. patient #32, 1:100 dilution",18
same,Fluorescence intesity,"serum of Uterine cervical Ca. patient #33, 1:100 dilution",191
same,Fluorescence intesity,"serum of Uterine cervical Ca. patient #34, 1:100 dilution",17
same,Fluorescence intesity,"serum of Uterine cervical Ca. patient #35, 1:100 dilution",21

# — patent US8030443B2, “Squamous cell carcinoma antigen-derived peptide binding to HLA-A24 molecule” (Kurume University, priority 2005, dated 2011)
